Assay results from ChEMBL document CHEMBL2074171, “Studies on intestinal absorption of sulpiride (1): carrier-mediated uptake of sulpiride in the human intestinal cell line Caco-2” (Biol Pharm Bull, 2002).
Peptide text beside a SMILES is read from it.

Experiments:
[1] = target: T1, Solute carrier family 15 member 1 (Homo sapiens) (UniProt P46059); test: TP_TRANSPORTER: trans-stimulation of Sulpiride uptake (Surpiride: 100 uM, Gly-Sar: 1000 uM) in Caco-2 cells; format: functional, cell-based
T1 sequence (whole entry): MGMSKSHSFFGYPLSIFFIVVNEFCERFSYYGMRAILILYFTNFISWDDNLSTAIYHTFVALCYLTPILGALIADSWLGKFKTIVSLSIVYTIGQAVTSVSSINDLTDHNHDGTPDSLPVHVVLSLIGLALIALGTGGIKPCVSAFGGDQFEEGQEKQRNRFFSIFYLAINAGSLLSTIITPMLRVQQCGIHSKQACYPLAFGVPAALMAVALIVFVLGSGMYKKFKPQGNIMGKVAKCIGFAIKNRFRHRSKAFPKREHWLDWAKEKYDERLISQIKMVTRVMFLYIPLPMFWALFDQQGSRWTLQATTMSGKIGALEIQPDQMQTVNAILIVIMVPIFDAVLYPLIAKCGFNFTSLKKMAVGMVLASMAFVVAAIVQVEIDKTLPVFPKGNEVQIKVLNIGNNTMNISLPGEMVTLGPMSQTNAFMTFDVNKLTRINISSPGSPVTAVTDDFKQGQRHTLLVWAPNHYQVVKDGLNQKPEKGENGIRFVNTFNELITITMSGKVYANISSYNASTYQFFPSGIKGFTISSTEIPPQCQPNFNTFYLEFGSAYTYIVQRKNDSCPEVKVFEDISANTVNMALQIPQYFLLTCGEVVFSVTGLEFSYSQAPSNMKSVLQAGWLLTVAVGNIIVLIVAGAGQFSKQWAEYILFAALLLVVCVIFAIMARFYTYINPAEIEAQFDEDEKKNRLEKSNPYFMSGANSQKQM

[2] = target: T1, Solute carrier family 15 member 1 (Homo sapiens); test: TP_TRANSPORTER: inhibition of Sulpiride uptake (Surpiride: 100 uM, Gly-Sar: 1000 uM) in Caco-2 cells; format: functional, cell-based; design: scale not given: the % may be the effect or the level left

For CN(CC(=O)O)C(=O)CN (HELM PEPTIDE1{G.[Sar]}$$$$V2.0), the Activity [1] was 135% and the Activity [2] was 65%.
